In this assay the test system is HCT 116 cells transfected with a luciferase reporter under the control of an HIF-responsive sequence. The experiment in a line: HIF-luciferase assay. To be noted: Homo sapiens; HCT 116 HIF-luciferase reporter cells, hypoxia chamber (1% O2), 24 h; in some cases means of up to four individual determinations. It is filed as cell-based. On the procedure: HCT 116 cells were transfected in a stable manner with a plasmid which contained a luciferase reporter under the control of an HIF-responsive sequence. These cells were sown in microtitre plates [20 000 cells/cavity in RPMI 1640 medium with 10% foetal calf serum (FCS) and 100 μg/ml of hygromycin]. Incubation was carried out overnight under standard conditions (5% CO2, 21% O2, 37° C., moistened). The following morning the cells were incubated with various concentrations of the test substances (0-10 μmol/l) in a hypoxia chamber (1% O2). After 24 h, Bright Glo reagent (Promega, Wisconsin, USA) was added in accordance with the manufacturer's instructions, and after 5 min the luminescence was measured. Cells which were incubated under normoxia served as background controls.
The IC50 values from this assay for representative working examples are listed in the following table (in same cases as means of up to four individual determinations): […]

pIC50: −log10 of the molar value.

By pIC50 is commonly meant −log10 of the IC50, conventionally taken in molar units. Read a low pIC50 as a large IC50. `Cc1cc(/C(F)=C/c2ccc(SC(F)(F)F)cc2)nn1Cc1cccc(C(=O)N2CCC(O)CC2)c1` [Example 33, [3-({3-[(Z)-1-Fluoro-2-{4-[(trifluoromethyl)sulphanyl]phenyl}vinyl]-5-methyl-1H-pyrazol-1-yl}-methyl)phenyl](4-hydroxypiperidin-1-yl)methanone] gave a pIC50 of 8.40.
With `Cc1cc(/C(F)=C/c2ccc(C(C)(C)C(F)(F)F)cc2)nn1Cc1cccc(C(=O)N2CCC(O)CC2)c1` [Example 34, {3-[(3-{(Z)-1-Fluoro-2-[4-(1,1,1-trifluoro-2-methylpropan-2-yl)phenyl]vinyl}-5-methyl-1H-pyrazol-1-yl)methyl]phenyl}(4-hydroxypiperidin-1-yl)methanone], the pIC50 was 8.30.
For `Cc1cc(/C(F)=C/c2ccc(C3(C(F)(F)F)CC3)cc2)nn1Cc1cccc(C(=O)N2CCC(O)CC2)c1` [Example 35, [3-({3-[(Z)-1-Fluoro-2-{4-[1-(trifluoromethyl)cyclopropyl]phenyl}vinyl]-5-methyl-1H-pyrazol-1-yl}methyl)phenyl](4-hydroxypiperidin-1-yl)methanone], the pIC50 is 8.30.
Turning to `Cc1cc(/C(F)=C/c2ccc(C(F)(F)F)cc2)nn1Cc1cccc(C(=O)N2CCC(O)CC2)c1` [Example 36, {3-[(3-{(Z)-1-Fluoro-2-[4-(trifluoromethyl)phenyl]vinyl}-5-methyl-1H-pyrazol-1-yl)methyl]-phenyl}(4-hydroxypiperidin-1-yl)methanone], the pIC50 was 8.40.
With `Cc1cc(/C(F)=C/c2ccc(OC(F)(F)F)cc2)nn1Cc1cccc(C(=O)N2CCN(C3CC3)CC2)c1` [Example 37, (4-Cyclopropylpiperazin-1-yl) {3-[(3-{(Z)-1-fluoro-2-[4-(trifluoromethoxy)phenyl]vinyl}-5-methyl-1H-pyrazol-1-yl)methyl]phenyl}methanone], the negative-log IC50 (pIC50) is 8.52. This pIC50 and that of the compound before are within 0.2 log units of each other.
To `Cc1cc(/C(F)=C/c2ccc(SC(F)(F)F)cc2)nn1Cc1cccc(C(=O)N2CCN(C3CC3)CC2)c1` [Example 38, (4-Cyclopropylpiperazin-1-yl)[3-({3-[(Z)-1-fluoro-2-{4-[(trifluoromethyl)sulphanyl]phenyl}vinyl]-5-methyl-1H-pyrazol-1-yl}methyl)phenyl]methanone] belongs 8.40; to `Cc1cc(/C(F)=C/c2ccc(C(C)(C)C(F)(F)F)cc2)nn1Cc1cccc(C(=O)N2CCN(C3CC3)CC2)c1` [Example 39, (4-Cyclopropylpiperazin-1-yl) {3-[(3-{(Z)-1-fluoro-2-[4-(1,1,1-trifluoro-2-methylpropan-2-yl)-phenyl]vinyl}-5-methyl-1H-pyrazol-1-yl)methyl]phenyl}methanone], 8.70; to `Cc1cc(/C(F)=C/c2ccc(C3(C(F)(F)F)CC3)cc2)nn1Cc1cccc(C(=O)N2CCN(C3CC3)CC2)c1` [Example 40, (4-Cyclopropylpiperazin-1-yl)[3-({3-[(Z)-1-fluoro-2-{4-[1-(trifluoromethyl)cyclopropyl]phenyl}-vinyl]-5-methyl-1H-pyrazol-1-yl}methyl)phenyl]methanone], 8.70.
`Cc1cc(/C(F)=C/c2ccc(C(F)(F)F)cc2)nn1Cc1cccc(C(=O)N2CCN(C3CC3)CC2)c1` [Example 41, (4-Cyclopropylpiperazin-1-yl) {3-[(3-{(Z)-1-fluoro-2-[4-(trifluoromethyl)phenyl]vinyl}-5-methyl-1H-pyrazol-1-yl)methyl]phenyl}methanone] gave a pIC50 of 8.52. The pIC50 values of the last two compounds are within 0.2 log units of each other.
To `Cc1cc(/C(F)=C/c2ccc(OC(F)(F)F)cc2)nn1Cc1cccc(C(=O)N2CCN(C)CC2)c1` [Example 42, {3-[(3-{(Z)-1-Fluoro-2-[4-(trifluoromethoxy)phenyl]vinyl}-5-methyl-1H-pyrazol-1-yl)methyl]-phenyl}(4-methylpiperazin-1-yl)methanone] belongs 8.40; to `CC(=O)OC1(c2cccc(Cn3nc(/C(F)=C/c4ccc(OC(F)(F)F)cc4)cc3C)c2)CC1` [Example 43, 1-{3-[(3-{(Z)-1-Fluoro-2-[4-(trifluoromethoxy)phenyl]vinyl}-5-methyl-1H-pyrazol-1-yl)methyl]phenyl}cyclopropyl acetate], 8.70.
Consider `CC(=O)OC1(c2cccc(Cn3nc(/C(F)=C/c4ccc(C(C)(C)C(F)(F)F)cc4)cc3C)c2)CC1` [Example 44, 1-{3-[(3-{(Z)-1-Fluoro-2-[4-(1,1,1-trifluoro-2-methylpropan-2-yl)phenyl]vinyl}-5-methyl-1H-pyrazol-1-yl)methyl]phenyl}cyclopropyl acetate], for which the pIC50 was 9.30. This pIC50 is 0.60 log units higher than that of the compound before.
On to `CC(=O)OC1(c2cccc(Cn3nc(/C(F)=C/c4ccc(C5(C(F)(F)F)CC5)cc4)cc3C)c2)CC1` [Example 46, 1-[3-({3-[(Z)-1-Fluoro-2-{4-[1-(trifluoromethyl)cyclopropyl]phenyl}vinyl]-5-methyl-1H-pyrazol-1-yl}methyl)phenyl]cyclopropyl acetate], for which the pIC50 is 9.15.
The result for `Cc1cc(/C(F)=C/c2ccc(OC(F)(F)F)cc2)nn1Cc1cccc(C2(O)CC2)c1` [Example 48, 1-{3-[(3-{(Z)-1-Fluoro-2-[4-(trifluoromethoxy)phenyl]vinyl}-5-methyl-1H-pyrazol-1-yl)methyl]-phenyl}cyclopropanol] reads 8.70; that for `Cc1cc(/C(F)=C/c2ccc(C(C)(C)C(F)(F)F)cc2)nn1Cc1cccc(C2(O)CC2)c1` [Example 49, 1-{3-[(3-{(Z)-1-Fluoro-2-[4-(1,1,1-trifluoro-2-methylpropan-2-yl)phenyl]vinyl}-5-methyl-1H-pyrazol-1-yl)methyl]phenyl}cyclopropanol], 9.10; that for `Cc1cc(/C(F)=C/c2ccc(C(C)(C)C(F)(F)F)c(F)c2)nn1Cc1cccc(C2(O)CC2)c1` [Example 50, 1-{3-[(3-{(Z)-1-Fluoro-2-[3-fluoro-4-(1,1,1-trifluoro-2-methylpropan-2-yl)phenyl]vinyl}-5-methyl-1H-pyrazol-1-yl)methyl]phenyl}cyclopropanol], 9.00.
Compound `Cc1cc(/C(F)=C/c2ccc(C3(C(F)(F)F)CC3)cc2)nn1Cc1cccc(C2(O)CC2)c1` [Example 51, 1-[3-({3-[(Z)-1-Fluoro-2-{4-[1-(trifluoromethyl)cyclopropyl]phenyl}vinyl]-5-methyl-1H-pyrazol-1-yl}methyl)phenyl]cyclopropanol] had a negative-log IC50 (pIC50) of 9.00.
As to `Cc1cc(/C(F)=C/c2ccc(C(C)(C)C)cc2)nn1Cc1cccc(C2(O)CC2)c1` [Example 52, 1-[3-({3-[(Z)-2-(4-tert-Butylphenyl)-1-fluorovinyl]-5-methyl-1H-pyrazol-1-yl}methyl)phenyl]-cyclopropanol], the pIC50 was 9.00.
With `Cc1cc(/C(F)=C/c2ccc(OC(F)(F)F)cc2)nn1Cc1cccc(C(C)(C)O)c1` [Example 53, 2-{3-[(3-{(Z)-1-Fluoro-2-[4-(trifluoromethoxy)phenyl]vinyl}-5-methyl-1H-pyrazol-1-yl)methyl]-phenyl}propan-2-ol], the pIC50 is 8.40.
For the compound `Cc1cc(/C(F)=C/c2ccc(C(C)(C)C(F)(F)F)cc2)nn1Cc1cccc(C(C)(C)O)c1` [Example 54, 2-{3-[(3-{(Z)-1-Fluoro-2-[4-(1,1,1-trifluoro-2-methylpropan-2-yl)phenyl]vinyl}-5-methyl-1H-pyrazol-1-yl)methyl]phenyl}propan-2-ol], the pIC50 was 8.52.
On to `Cc1cc(/C(F)=C/c2ccc(OC(F)(F)F)cc2)nn1Cc1cccc(C2(CO)CC2)c1` [Example 55, (1-{3-[(3-{(Z)-1-Fluoro-2-[4-(trifluoromethoxy)phenyl]vinyl}-5-methyl-1H-pyrazol-1-yl)methyl]-phenyl}cyclopropyl)methanol], for which the pIC50 was 8.40.
The result for `Cc1cc(/C(F)=C/c2ccc(SC(F)(F)F)cc2)nn1Cc1cccc(C2(CO)CC2)c1` [Example 56, {1-[3-({3-[(Z)-1-Fluoro-2-{4-[(trifluoromethyl)sulphanyl]phenyl}vinyl]-5-methyl-1H-pyrazol-1-yl}methyl)phenyl]cyclopropyl}methanol] reads 8.70.
Take `Cc1cc(/C(F)=C/c2ccc(C(C)(C)C(F)(F)F)cc2)nn1Cc1cccc(C2(CO)CC2)c1` [Example 57, (1-{3-[(3-{(Z)-1-Fluoro-2-[4-(1,1,1-trifluoro-2-methylpropan-2-yl)phenyl]vinyl}-5-methyl-1H-pyrazol-1-yl)methyl]phenyl}cyclopropyl)methanol]: the pIC50 was 9.00.
The compound `Cc1cc(/C(F)=C/c2ccc(C(C)(C)C(F)(F)F)c(F)c2)nn1Cc1cccc(C2(CO)CC2)c1` [Example 58, (1-{3-[(3-{(Z)-1-Fluoro-2-[3-fluoro-4-(1,1,1-trifluoro-2-methylpropan-2-yl)phenyl]vinyl}-5-methyl-1H-pyrazol-1-yl)methyl]phenyl}cyclopropyl)methanol] gave a pIC50 of 8.70.
To `Cc1cc(/C(F)=C/c2ccc(C3(C(F)(F)F)CC3)cc2)nn1Cc1cccc(C2(CO)CC2)c1` [Example 59, {1-[3-({3-[(Z)-1-Fluoro-2-{4-[1-(trifluoromethyl)cyclopropyl]phenyl}vinyl]-5-methyl-1H-pyrazol-1-yl}methyl)phenyl]cyclopropyl}methanol] belongs 8.70.
In turn, `Cc1cc(/C(F)=C/c2ccc(OC(F)(F)F)cc2)nn1Cc1cccc(C(F)(F)CO)c1` [Example 61, 2,2-Difluoro-2-{3-[(3-{(Z)-1-fluoro-2-[4-(trifluoromethoxy)phenyl]vinyl}-5-methyl-1H-pyrazol-1-yl)methyl]phenyl}ethanol] showed a pIC50 of 8.40.
